Laboratory results taken from patent US12077503B2, “Substituted cyclic amides and their use as herbicides” (FMC CORPORATION, priority 2015, dated 2024).

How the values were obtained:
Format in all cases: in vivo
[1] = system: barnyardgrass (Echinochloa crus-galli); assay: Test A postemergence; details: Echinochloa crus-galli, post-emergence, 240 h, 125 g ai/ha, postemergence, visual injury rating after approximately 10 d; read-out: Barnyardgrass plant response rating (0 to 100 scale, 0 no effect, 100 complete control)
How it was run: (§1)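 Greenhouse, ~10 d after spray; visual injury vs untreated controls, 0 = no effect, 100 = complete control. Preemergence: directed soil spray over planted seeds. Postemergence: plants 2–10 cm, 1–2 leaf stage. Loam/sand blend. Compound in non-phytotoxic solvent with surfactant.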

[2] = system: Kochia (Kochia scoparia); assay: Test A postemergence; details: Bassia scoparia, post-emergence, 240 h, 125 g ai/ha, postemergence, visual injury rating after approximately 10 d; read-out: Kochia plant response rating (0 to 100 scale, 0 no effect, 100 complete control)
How it was run: as §1

[3] = system: blackgrass (Alopecurus myosuroides); assay: Test A postemergence; details: Alopecurus myosuroides, post-emergence, 240 h, 125 g ai/ha, postemergence, visual injury rating after approximately 10 d; read-out: Blackgrass plant response rating (0 to 100 scale, 0 no effect, 100 complete control)
How it was run: as §1

[4] = system: pigweed (Amaranthus retroflexus); assay: Test A postemergence; details: Amaranthus retroflexus, post-emergence, 240 h, 125 g ai/ha, postemergence, visual injury rating after approximately 10 d; read-out: Pigweed plant response rating (0 to 100 scale, 0 no effect, 100 complete control)
How it was run: as §1

[5] = system: giant foxtail (Setaria faberii); assay: Test A preemergence; details: Setaria faberi, pre-emergence, 240 h; for pest or weed control at 125 g/ha: 125 g ai/ha, preemergence, 0 to 100 scale where 0 is no effect and 100 is complete control, read-out: Foxtail, Giant plant response rating; for pest or weed control at 500 g/ha: 500 g ai/ha, Preemergence, visual injury vs untreated controls after approximately 10 d, read-out: Foxtail, Giant plant response rating (0 to 100 scale where 0 is no effect and 100 is complete control)
How it was run: as §1

[6] = system: barnyardgrass (Echinochloa crus-galli); assay: Test A preemergence; details: Echinochloa crus-galli, pre-emergence, 240 h; for pest or weed control at 125 g/ha: 125 g ai/ha, preemergence, 0 to 100 scale where 0 is no effect and 100 is complete control, read-out: Barnyardgrass plant response rating; for pest or weed control at 500 g/ha: 500 g ai/ha, Preemergence, visual injury vs untreated controls after approximately 10 d, read-out: Barnyardgrass plant response rating (0 to 100 scale where 0 is no effect and 100 is complete control)
How it was run: as §1

[7] = system: Kochia (Kochia scoparia); assay: Test A preemergence; details: Bassia scoparia, pre-emergence, 240 h; for pest or weed control at 125 g/ha: 125 g ai/ha, preemergence, 0 to 100 scale where 0 is no effect and 100 is complete control, read-out: Kochia plant response rating; for pest or weed control at 500 g/ha: 500 g ai/ha, Preemergence, visual injury vs untreated controls after approximately 10 d, read-out: Kochia plant response rating (0 to 100 scale where 0 is no effect and 100 is complete control)
How it was run: as §1

[8] = system: ryegrass, Italian (Italian ryegrass, Lolium multiflorum); assay: Test A preemergence; details: Lolium multiflorum, pre-emergence, 240 h; for pest or weed control at 125 g/ha: 125 g ai/ha, preemergence, 0 to 100 scale where 0 is no effect and 100 is complete control, read-out: Ryegrass, Italian plant response rating; for pest or weed control at 500 g/ha: 500 g ai/ha, Preemergence, visual injury vs untreated controls after approximately 10 d, read-out: Ryegrass, Italian plant response rating (0 to 100 scale where 0 is no effect and 100 is complete control)
How it was run: as §1

[9] = system: pigweed (Amaranthus retroflexus); assay: Test A preemergence; details: Amaranthus retroflexus, pre-emergence, 240 h; for pest or weed control at 125 g/ha: 125 g ai/ha, preemergence, 0 to 100 scale where 0 is no effect and 100 is complete control, read-out: Pigweed plant response rating; for pest or weed control at 500 g/ha: 500 g ai/ha, Preemergence, visual injury vs untreated controls after approximately 10 d, read-out: Pigweed plant response rating (0 to 100 scale where 0 is no effect and 100 is complete control)
[10] = system: ragweed (common ragweed, Ambrosia elatior); assay: Test A preemergence; details: Ambrosia artemisiifolia, pre-emergence, 240 h; for pest or weed control at 125 g/ha: 125 g ai/ha, preemergence, 0 to 100 scale where 0 is no effect and 100 is complete control, read-out: Ragweed plant response rating; for pest or weed control at 500 g/ha: 500 g ai/ha, Preemergence, visual injury vs untreated controls after approximately 10 d, read-out: Ragweed plant response rating (0 to 100 scale where 0 is no effect and 100 is complete control)
How it was run: as §1

[11] = system: barnyardgrass (Echinochloa crus-galli); assay: Test B flooded paddy test; details: Echinochloa crus-galli, Flood, 250 g ai/ha; scale of 0 to 100 where 0 is no effect and 100 is complete control; read-out: Barnyardgrass plant response rating
How it was run: (§2)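 Evaluation by eye, against controls, occurred 13–15 d post-treatment in a greenhouse, using a 0 (no effect) to 100 (complete control) scale. Application was into the paddy water, 3 cm deep over the soil, on 2-leaf plants.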

[12] = system: rice (Oryra sativa); assay: Test B flooded paddy test; details: Oryza sativa, Flood, 250 g ai/ha; scale of 0 to 100 where 0 is no effect and 100 is complete control; read-out: Rice plant response rating
How it was run: as §2

[13] = system: sedge, umbrella (small-flower umbrella sedge, Cyperus difformis); assay: Test B flooded paddy test; details: Cyperus difformis, Flood, 250 g ai/ha; scale of 0 to 100 where 0 is no effect and 100 is complete control; read-out: Sedge, Umbrella plant response rating
How it was run: as §2

[14] = system: ducksalad (Heteranthera limosa); assay: Test B flooded paddy test; details: Heteranthera limosa, Flood, 250 g ai/ha; scale of 0 to 100 where 0 is no effect and 100 is complete control; read-out: Ducksalad plant response rating
How it was run: as §2

Structure (SMILES)	pest or weed control at 125 g/ha [1] [%]	pest or weed control at 125 g/ha [2] [%]	pest or weed control at 125 g/ha [3] [%]	pest or weed control at 125 g/ha [4] [%]	pest or weed control at 125 g/ha [5] [%]	pest or weed control at 500 g/ha [5] [%]	pest or weed control at 125 g/ha [6] [%]	pest or weed control at 500 g/ha [6] [%]	pest or weed control at 125 g/ha [7] [%]	pest or weed control at 500 g/ha [7] [%]	pest or weed control at 125 g/ha [8] [%]	pest or weed control at 500 g/ha [8] [%]	pest or weed control at 125 g/ha [9] [%]	pest or weed control at 500 g/ha [9] [%]	pest or weed control at 125 g/ha [10] [%]	pest or weed control at 500 g/ha [10] [%]	pest or weed control at 250 g/ha [11] [%]	pest or weed control at 250 g/ha [12] [%]	pest or weed control at 250 g/ha [13] [%]	pest or weed control at 250 g/ha [14] [%]
COc1c(F)ccc([C@H]2CNC(=O)[C@@H]2C(=O)Nc2ccc(F)c(F)c2F)c1Cl [Compound 890]	90	60	20	0	90	90	90	90	40	90	50	70	30	50	0	0	60	0	0	90
COc1c(F)ccc([C@H]2CNC(=O)[C@@H]2C(=O)Nc2ccccc2C(F)(F)F)c1Cl [Compound 891]	50	0	0	0	80	90	60	80	0	20	0	30	0	0	0	0	0	20	0	100
CN1C[C@H](c2cc(F)c(C(F)(F)F)c(F)c2)[C@@H](C(=O)Nc2ccccc2S(C)(=O)=O)C1=O [Compound 900]	80	30	40	50	90	90	90	90	90	90	60	60	80	90	50	80	70	0	0	40
CN1C[C@H](c2cc(F)c(C(F)(F)F)c(F)c2)[C@@H](C(=O)Nc2ccc(F)cc2F)C1=O [Compound 901]	60	30	20	0	90	90	90	90	80	80	20	50	30	60	0	0	60	0	0	60
